Measured values as given in US8158589B2, “Peptides with the capacity to bind to transforming growth factor β1 (TGF-β1)” (Proyecto Biomedicine Cima, S.L., priority 2003, dated 2012).
Ends that are not written are not given here.

What was measured:
TGF-β1 [1] = target: T1, TGF-β1 (Mus musculus, UniProt P04202); assay: Bleomycin-induced pulmonary fibrosis, preventive treatment started two days after bleomycin; assay type: in vivo, mice
T1 construct: from tissue; host or cells: liver of Balb/C mice (CCl4 model); lung of C57BL/6 mice (bleomycin model)
T1 sequence (P04202 279-390 limits assumed): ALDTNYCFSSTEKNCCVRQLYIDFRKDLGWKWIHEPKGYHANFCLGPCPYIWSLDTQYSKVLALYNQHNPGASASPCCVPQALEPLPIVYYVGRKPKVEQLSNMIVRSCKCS
Protocol: Female C57BL/6 mice (6-8 weeks of age) were obtained from Harlan SL (Barcelona, Spain) and maintained in accordance with the ethical committee of Universidad de Navarra (Spain) for the experimental use of animals. Lung injury was induced with 0.08 units/mouse of bleomycin sulfate (Sigma, Spain) diluted in 200 μl of phosphate buffered saline (PBS). Briefly, the suspension of bleomycin was instilled by pippeting into the nose of mice previously anesthetized with 2% isoflurane vapor. PBS was instilled in mice as a negative control for pulmonary fibrosis (PF), following the same procedures. Peptide treatment was started two days after bleomycin challenge and it was administered intraperitoneally in 500 μl of PBS on alternate days. Mice received high (75 μg/mouse) or low (25 μg/mouse) doses of P17, or the high dose (75 μg/mouse) of control peptide P301. […] To study the therapeutic effect of P17 in the development of fibrosis, it was administered daily ten days after bleomycin challenge, once fibrosis was established. Twenty six days after bleomycin instillation, mice were sacrificed and lung samples were fixed in order to evaluate histological damage.
Total RNA was purified from IMR-90 fibroblasts and whole lung samples using Ultraspec RNA (Biotecx; Houston, Tex.) according to the manufacturer's instructions. First, 1 μg of RNA was incubated with Dnase I (2 U/μl) (Gibco-BRL) for 30 min at 37° C. Then, samples were reverse-transcribed with the M-MLV Reverse transcriptase (Gibco-BRL) in the presence of RNaseOUT (Gibco-BRL) with ramdon hexamers and poly (dT) oligos according to the manufacturer's protocol. Expression of human Connective Tissue Growth Factor (CTGF) mRNA induced by TGF-β1 in IMR-90 fibroblasts was measured by real time RT-PCR using an ICycler and IQ SYBR Supermix (Bio-Rad, Italy). Actin was used as endogenous reference housekeeping gene. For in vivo analysis, expression of murine Fibronectin (FN), extra domain A of Fibronectin (EDA-FN), Collagen type I and Interferon gamma (IFN-γ) was measured in lungs, using Histone 3 as internal control. The amount of each transcript was expressed by the formula: 2^ΔCt (ΔCt=Ct(control gene)−Ct(gene)), wherein Ct is the threshold cycle number at which an increase in the signal associated with exponential growth of PCR products begins to be detected using Bio-Rad analysis software.
Lungs were fixed by inflation with 4% paraformaldehyde overnight and dehydrated in 70% ethanol. Tissue was embedded in paraffin wax, 3 μm thick sections were prepared and stained with Masson's trichrome to measure collagen deposition. Percentage of fibrosis in the lung was evaluated by light microscopy by three different qualified persons using a blinded system.
Dewaxed and rehydrated lung tissue sections were subjected to endogenous peroxidase inactivation with a blocking reagent (DakoCytomation, Denmark) for 10 min. They were then incubated for two hours with a 1/50 dilution in PBS of mouse anti-human α-SMA monoclonal antibody (DakoCytomation) that cross-reacts with mouse α-SMA. Next, sections were incubated for 1 hour with a peroxidase-labeled polyclonal rabbit anti-mouse immunoglobulin (DakoCytomation). Peroxidase activity was visualized using DAB+ Chromogen (DakoCytomation) as substrate and sections were counterstained with Harris hematoxylin. Expression of αSMA was evaluated by light microscopy and expressed as percentage of α-SMA positive area.
Lymphocyte infiltrate in the lungs was also determined by immunohistochemical analysis. In this case, lung sections were incubated with a mouse anti-human αCD3 monoclonal antibody that cross-reacts with mouse CD3 (NeoMarkers, CA) and then with an anti-mouse immunoglobulin coupled with peroxidase (DakoCytomation). CD3-positive cells were counted in a whole lobe (about 20 fields).

TGF-β1 [2] = target: T2, TGF-β1 (Homo sapiens, UniProt P01137); assay: Immunofluorescence of p-Smad2 translocation to the nucleus in rabbit corneal fibroblasts; assay type: cell-based; parameters: host or cells: added to a primary culture of rabbit corneal fibroblasts; settings: TGF-β1 treated rabbit corneal fibroblasts
Protocol: Therefore, Western Blot and immunofluorescence studies were conducted to determine, from cells extracted from the in vivo studies, the signaling pathway used by the peptides administered topically. It should be emphasized that said studies were conducted on fibroblasts from rabbit cornea and not from rat cornea. This decision was made due to the difficulty entailed in isolating fibroblasts from rodent eyes.
Target sequence in this assay (P01137 279-390 limits assumed, species assumed): as the sequence (P04202 279-390 limits assumed) above, with S75A counted along it

TGF-β1 [3] = target: T2, TGF-β1; assay: α-SMA expression induced by TGF-β1 in IMR-90 lung fibroblasts, western blot; assay type: cell-based; parameters: purchased R&D Systems; host or cells: added to IMR-90 human lung fibroblasts; settings: IMR-90 cells, 5 ng/ml TGF-β1, peptide 100 μg/ml, 24 hours
Protocol: IMR-90 human lung fibroblasts (ATCC, Manassas, Va.) were cultured in EMEM medium (Cambrex, Belgium) supplemented with 10% fetal bovine serum (FBS), 1 mM sodium pyruvate, 0.1 mM nonessential amino acids, 100 U/ml penicillin and 100 μg/ml streptomycin (Gibco BRL, UK). For experiments, 6×10^4 cells/well were cultured in 6-well plates in 2 ml of medium and when they were 80% confluent, medium was replaced with serum-free EMEM for 48 h to induce quiescence. TGF-β1 (5 ng/ml) and P17 (100 μg/ml) were co-incubated for 90 min at 37° C. to allow binding of both molecules before addition to cell cultures. Quiescent cells were then stimulated with TGF-β1 and/or P17 for up to 6 or 24 h. After these incubation periods, fibroblasts were harvested for gene and protein analysis, respectively.
To assess alpha-Smooth Muscle Actin (αSMA) expression, IMR-90 fibroblasts were lysed with RIPA buffer containing 10 U/ml leupeptin, 10 U/ml pepstatin, 1 mM phenylmethanesulfonylfluoride (PMSF), 1 mM Na3VO4 and 1 mM NaF. […] Membranes were analyzed for expression of αSMA protein using anti-αSMA monoclonal antibody (Sigma-Aldrich) at a dilution of 1:2000 and horseradish peroxidase-labeled anti-mouse IgG (Sigma-Aldrich). Expression of actin was detected using anti-actin monoclonal antibody (Sigma-Aldrich) (1:2000 dilution) and horseradish peroxidase-labeled anti-rabbit IgG (Sigma-Aldrich). […]
Target sequence in this assay (P01137 279-390 limits assumed): as the sequence (P04202 279-390 limits assumed) above, with S75A counted along it

[4] = 75 μg/mouse, 14 days after bleomycin instillation, RT-PCR

lung fibrosis (Masson's Trichrome) (TGF-β1 [1]; 25 μg/mouse intraperitoneally on alternate days from day 2, day 26): No beneficial effect
lung fibrosis (Masson's Trichrome) (TGF-β1 [1]; 75 μg/mouse intraperitoneally on alternate days from day 2, day 26, vs control peptide): significant decrease of fibrosis
collagen type I mRNA in lungs (TGF-β1 [1]; [4]): significant reduction
fibronectin mRNA in lungs (TGF-β1 [1]; [4]): significantly downregulated
EDA-FN mRNA in lungs (TGF-β1 [1]; 75 μg/mouse, 14 days after bleomycin instillation, vs control peptide): lower expression levels
IFN-γ mRNA expression in lungs (TGF-β1 [1]; 75 μg/mouse, RT-PCR): upregulated
T lymphocytes (CD3+ cells) in lung sections (TGF-β1 [1]; 75 μg/mouse, vs bleomycin mice with or without P301): significant reduction
IL-10 or IL-4 mRNA expression in lungs (TGF-β1 [1]; P17 vs P301 control peptide, RT-PCR, data not shown): did not show any significant difference
areas of myofibroblasts (α-SMA expression) in lungs (TGF-β1 [1]; high dose 75 μg/mouse, immunohistochemistry): fewer areas of myofibroblasts
translocation of p-Smad2 to the nucleus (TGF-β1 [2]): did not inhibit
α-SMA expression induced by TGF-β1 (TGF-β1 [3]): inhibited
Sequence: KRIWFIPRSSWYERA [SEQ ID NO: 17, KRIWFIPRSSWYERA]
